Tests used:
Cytoglobin (Cygb) [1] = target: T1, Cytoglobin (Cygb) (Homo sapiens, UniProt Q8WWM9); type: biochemical; conditions: cygb:lipid liposomes
[2] = target: Cytoglobin (Cygb Δ1-15Δ174-190) (Homo sapiens, UniProt Q8WWM9, Δ1-15Δ174-190); experiment: differential absorbance spectroscopy titration, […] fit; type: binding
[3] = target: Cytoglobin (Cygb), wild type (Homo sapiens, UniProt Q8WWM9); experiment: as above; type: binding
Cytoglobin (Cygb) [4] = target: T1, Cytoglobin (Cygb); experiment: LC-MS/MS of lipid oxidation products by Cygb/H2O2; type: biochemical

T1 sequence (Q8WWM9 whole entry): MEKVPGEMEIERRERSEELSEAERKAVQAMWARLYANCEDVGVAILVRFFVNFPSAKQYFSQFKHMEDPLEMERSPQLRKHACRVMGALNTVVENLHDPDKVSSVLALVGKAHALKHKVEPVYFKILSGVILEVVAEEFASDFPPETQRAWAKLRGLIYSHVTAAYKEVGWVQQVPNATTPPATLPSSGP
Sequence of Cytoglobin (Cygb Δ1-15Δ174-190) (Q8WWM9 16-173, stated change not applied): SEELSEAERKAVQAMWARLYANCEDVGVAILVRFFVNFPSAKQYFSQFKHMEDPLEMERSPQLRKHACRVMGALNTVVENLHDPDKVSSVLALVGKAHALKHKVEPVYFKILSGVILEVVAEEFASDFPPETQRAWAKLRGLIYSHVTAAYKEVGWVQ
Sequence of Cytoglobin (Cygb), wild type (Q8WWM9 whole entry): as the sequence (Q8WWM9 whole entry) above

In the case of `CCCCCCCC/C=C\CCCCCCCC(=O)OC[C@H](COP(=O)(O)O)OC(=O)CCCCCCC/C=C\CCCCCCCC` [DOPA, 1,2-dioleoyl-sn-glycero-3-phosphate], the “activation of peroxidase activity, Amplex Red oxidation, 1:25 Cygb:lipid liposom” value (Cytoglobin (Cygb) [1]) is reported as 1.6 fold increase in rate.
For `CCCCCCCC/C=C\CCCCCCCC(=O)O` [OA, oleic acid], the Kd [2] was 3000 ± 1800 nM and the Kd [3] was 2300 ± 1000 nM.
In the case of `CCCCC/C=C\C/C=C\C/C=C\C/C=C\CCCC(=O)O[C@H](COC(=O)CCCCCCCCCCCCCCCCC)COP(=O)(O)O` [SAPA, 1-stearoyl-2-arachidonoyl-sn-glycero-3-phosphate], the “LC-MS/MS of lipid oxidation products by Cygb/H2O2” value (Cytoglobin (Cygb) [4]) is reported as 5.6 ± 0.1 picomoles of oxidation products.

From paper PMC4821708 (Biochimica et biophysica acta, 2016)
